“Also recorded” adds a separate entry of the source.
How the values were obtained:
[1] = system: GLAST mRNA; assay: Real Time RT-PCR of ipsilateral lumbar spinal cord, GLAST mRNA; assay type: in vivo, rat
Description: Tissue was collected from 4-5 rats/group on postoperative days 4 or 12. In order to obtain both mRNA and protein from the same tissue sample, the L5 region of the spinal cord (ipsilateral to the injury), was isolated and placed in PBS supplemented with protease inhibitor cocktail (1:1000, Sigma Chemical Co., St. Louis, Mo.) and RNase inhibitor (0.75 U/μL Ambion, Austin, Tex.). Samples were sonicated in five one-second bursts at half-maximal power, centrifuged at 6500 rpm for 15 minutes at 4° C. Protein-containing supernatants were collected and stored at −80° C. until further processing by Western blot analysis. […]
Real time RT-PCR reactions were carried out in a total reaction volume of 25 μL containing a final concentration of 1.5 U Platinum Taq DNA polymerase (Invitrogen Corporation, Carlsbad, Calif.); 20 mM Tris HCl (pH 8.4); 50 mM KCl; 3 mM MgCl2; 200 μM dGTP, dCTP, and dATP; 400 μM dUTP and 1 U of UDG (uracyl DNA glycosylase); 900 nM of forward and reverse primers; 300 nM Taqman probe; and 5 μL of a 10-fold dilution of cDNA (50 ng) from the RT step. The iCycler™ Multicolor Real-Time PCR detection system (Bio-Rad, Hercules, Calif.) was used to quantify PCR product. […] The relative fold change from control was then expressed by calculation of 2^−ΔΔC^T for each sample and the results are expressed as the group mean fold change±SEM.

[2] = system: GLT-1; assay: Immunohistochemistry of rat lumbar spinal cord, GLT-1; assay type: in vivo; conditions: day 12 post-transection, ipsilateral vs contralateral
Description: For assessment of GFAP, GLT-1 and GLAST immunoreactivity, a separate group of rats (n=4/treatment) were anesthetized and transcardially perfused with 0.1 M PBS (phosphate-buffered saline), pH 7.4, followed by 4% paraformaldehyde in PBS on day 12 post-L5 spinal nerve transection. Lumbar spinal cord sections were identified, isolated, and processed as described previously (Colburn, R. W. et al. 1997. J. Neuroimmunol. 79:163-175). Free-floating, […] were cut in a cryostat and processed for immunofluorescence. Sections were blocked with 5% FBS/0.1% Triton-X 100 for 1 hour at room temperature (RT). For double immunofluorescence, spinal sections were incubated with a mixture of rabbit polyclonal anti-GLT-1 (1:500) or guinea pig anti-GLAST (1:5000, Chemicon, Temecula, Calif.), and mouse anti-GFAP G-A-5 (astrocyte marker, 1:400, Sigma Chemical Co., St. Louis, Mo.) in 3% FBS/0.1% triton-X 100/TBS over night at 4° C., washed, incubated in a mixture of goat anti-rabbit Alexa Fluor™-555 and goat anti-mouse Alexa Fluor™-488 (1:250, Molecular Probes, Eugene, Oreg.) secondary antibodies in 3% FBS/0.1% triton-X 100/TBS for 1 hour at RT. To control for nonspecific staining, control sections were incubated in the absence of primary antibodies. The sections were examined with a fluorescence microscope, and images were captured with a Q-Fire cooled camera. […]

[3] = system: GLAST; assay: Western blot of ipsilateral lumbar spinal cord, GLAST protein; assay type: in vivo, rat; conditions: day 12 post-transection
Description: Tissue was collected from 4-5 rats/group on postoperative days 4 or 12. In order to obtain both mRNA and protein from the same tissue sample, the L5 region of the spinal cord (ipsilateral to the injury), was isolated and placed in PBS supplemented with protease inhibitor cocktail (1:1000, Sigma Chemical Co., St. Louis, Mo.) and RNase inhibitor (0.75 U/μL Ambion, Austin, Tex.). Samples were sonicated in five one-second bursts at half-maximal power, centrifuged at 6500 rpm for 15 minutes at 4° C. Protein-containing supernatants were collected and stored at −80° C. until further processing by Western blot analysis. The pellet was treated with TRIzol reagent (Invitrogen, Carlsbad, Calif.) for the extraction of total RNA according to the manufacturer's specifications.
Protein obtained from L5 lumbar spinal cord was quantified using the Lowry method (DC assay, Bio-Rad, Hercules, Calif.). Forty micrograms of protein and standard protein markers were subjected to SDS polyacrylamide gel electrophoresis (7.5% gel, Bio-Rad, Hercules, Calif.) and id transferred to polyvinylidene difluoride (PVDF, Bio-Rad, Hercules, Calif.) filters. Nonspecific binding was blocked by incubation with 5% milk/PBS-T at room temperature for 1 hour followed by incubation overnight at 4° C. with monoclonal guinea pig anti-GLT-1 or guinea pig anti-GLAST (1:2500, Chemicon). […]

For `CCCn1cnc2c1c(=O)n(CCCCC(C)=O)c(=O)n2C` [propentofylline], the “GLAST mRNA in lumbar spinal cord” value ([1]; day 4, compared to L5 spinal nerve transection alone) was “slight decrease in GLAST mRNA”, the “GLAST mRNA levels (FIG. 9B legend)” value ([1]; days 4 and 12 post-transection) was “unaffected” and the “GLT-1 immunoreactivity in dorsal horn” value [2] was “no qualitative difference in GLT-1 between ipsilateral and contralateral dorsal horns”. For the same compound, the GLAST protein [3] was “further decreased by propentofylline treatment; also recorded: slight decrease”.

Reference: patent US20090227606A1, “Methods for Preventing or Treating Acute and Chronic Pain” (priority 2006, published 2009)
